Paper PMC8161026, “Synthesis and Anticancer Activity Evaluation of 5-[2-Chloro-3-(4-nitrophenyl)-2-propenylidene]-4-thiazolidinones” (Molecules, 2021)

Columns and labels:
HT-29 = assay: NCI DTP 60 cell line screen, SRB; settings: for TGI: HT-29 (Colon Cancer), 48 h, SRB; for GI50 / CC50: Homo sapiens, HT-29, 48 h; for CC50: read-out: LC50
OVCAR-4 = assay: NCI DTP 60 cell line screen, SRB; settings: for GI50 / CC50: Homo sapiens, OVCAR-4, 48 h; for CC50: read-out: LC50; for TGI: OVCAR-4 (Ovarian Cancer), 48 h, SRB
BT-549 = assay: NCI DTP 60 cell line screen, SRB; settings: for TGI: BT-549 (Breast Cancer), 48 h, SRB; for GI50 / CC50: Homo sapiens, BT-549, 48 h; for CC50: read-out: LC50
NCI-322M = assay: NCI DTP 60 cell line screen, SRB; settings: 48 h; for GI50 / CC50: Homo sapiens, NCI-322M; for CC50: read-out: LC50; for TGI: NCI-322M (Non-Small Cell Lung Cancer), SRB
HCC-2998 = assay: NCI DTP 60 cell line screen, SRB; settings: for TGI: HCC-2998 (Colon Cancer), 48 h, SRB; for GI50 / CC50: Homo sapiens, HCC 2998, 48 h; for CC50: read-out: LC50
SN12C = assay: cells; settings: Homo sapiens, 48 h; for CC50: read-out: LC50
RXF 393 [1] = settings: RXF 393 (Renal Cancer), 48 h, SRB
[2] = system: breast cancer lines MCF-7 and MDA-MB-231; assay: MTT cell viability assay, both breast cancer lines; type: cell-based; settings: Homo sapiens; MCF-7 and MDA-MB-231, MTT; read-out: GI50 level
Method: In the second stage of the research, Ciminalum-thiazolidinone hybrids were investigated for antitumor activity on the lines of gastric cancer (AGS), human colon cancer (DLD-1), and breast cancers (MCF-7 and MDA-MB-231). The study was performed in the MTT assay according to the method described previously. The studied cancer line was sensitive to the action of the studied compounds that inhibited its growth in micromolar ranges of GI50. The hit compounds that inhibited the growth of all four cancer lines with the lowest GI50 values were [5-[2-chloro-3-(4-nitrophenyl)prop-2-enylidene]-rhodanines 2c, 2d, 2h, and 2i (Table 4).

RXF 393 [3] = assay: cells; settings: Homo sapiens, RXF 393, 48 h; for CC50: read-out: LC50
MDA-MB-468 = assay: NCI DTP 60 cell line screen, SRB

| Compound | TGI (HT-29) | GI50 (HT-29) | CC50 (HT-29) | GI50 (OVCAR-4) | CC50 (OVCAR-4) | TGI (OVCAR-4) | TGI (BT-549) | GI50 (BT-549) | CC50 (BT-549) | GI50 (NCI-322M) | CC50 (NCI-322M) | TGI (NCI-322M) | TGI (HCC-2998) | GI50 (HCC-2998) | CC50 (HCC-2998) | GI50 (SN12C) | CC50 (SN12C) | TGI (RXF 393 [1]) | GI50 (RXF 393 [3]) | CC50 (RXF 393 [3]) | further results |
| --- | --- | --- | --- | --- | --- | --- | --- | --- | --- | --- | --- | --- | --- | --- | --- | --- | --- | --- | --- | --- | --- |
| O=C1NC(=S)S/C1=C\C(Cl)=C\c1ccc([N+](=O)[O-])cc1 [Compound 2b, 5-[(Z,2Z)-2-Chloro-3-(4-nitrophenyl)-2-propenylidene]-2-thioxo-4-thiazolidinone] | 9.48 µM | 1.48 µM | > 50 µM | 1.95 µM | > 50 µM | 11.7 µM | 4.74 µM | 1.47 µM | 27.2 µM | 6.51 µM | > 50 µM | 18.8 µM | 11.7 µM | 5.43 µM | 25 µM | 4.11 µM | > 50 µM | – | – | – | – |
| O=C1/C(=C/C(Cl)=C/c2ccc([N+](=O)[O-])cc2)SC(=S)N1/N=C\C(Cl)=C\c1ccc([N+](=O)[O-])cc1 [Compound 2c, 5-[(Z,2Z)-2-Chloro-3-(4-nitrophenyl)-2-propenylidene]-3-[(Z,2Z)-2-chloro-3-(4-nitrophenyl)-2-propenylideneamino]-2-thioxo-4-thiazolidinone] | – | – | – | – | – | – | 76.0 µM | 27.3 µM | > 100 µM | 87.6 µM | > 100 µM | > 100 µM | – | – | – | 29 µM | > 100 µM | – | – | – | – |
| O=C1/C(=C/C(Cl)=C/c2ccc([N+](=O)[O-])cc2)SC(=S)N1c1ccc(O)cc1 [Compound 2f, 5-[(Z,2Z)-2-Chloro-3-(4-nitrophenyl)-2-propenylidene]-3-(4-hydroxyphenyl)-2-thioxo-4-thiazolidinone] | > 100 µM | 2.14 µM | > 100 µM | 2.63 µM | > 100 µM | > 100 µM | 7.71 µM | 1.55 µM | > 100 µM | 2.49 µM | > 100 µM | 9.02 µM | – | – | – | 1.98 µM | > 100 µM | – | – | – | – |
| O=C(O)CCN1C(=O)/C(=C/C(Cl)=C/c2ccc([N+](=O)[O-])cc2)SC1=S [Compound 2h, 3-{5-[(Z,2Z)-2-Chloro-3-(4-nitrophenyl)-2-propenylidene]-4-oxo-2-thioxothiazolidin-3-yl}propanoic acid] | 2.77 µM | 1.25 µM | > 100 µM | 2.66 µM | 56.2 µM | 14.9 µM | 0.920 µM | 0.247 µM | 36.3 µM | 2.83 µM | 63.4 µM | 10.9 µM | – | – | – | 1.05 µM | 8.48 µM | 0.341 µM | 0.105 µM | 1.73 µM | GI50 [2]: 0.95 to 1.74 µM |
| O=C(O)C(Cc1ccccc1)N1C(=O)/C(=C/C(Cl)=C/c2ccc([N+](=O)[O-])cc2)SC1=S (centres unmarked) [Compound 2j, 2-{5-[(Z,2Z)-2-Chloro-3-(4-nitrophenyl)-2-propenylidene]-4-oxo-2-thioxothiazolidin-3-yl}-3-phenylpropanoic acid] | 8.47 µM | 2.84 µM | > 100 µM | 3.21 µM | > 100 µM | > 100 µM | 4.17 µM | 1.79 µM | > 100 µM | > 100 µM | > 100 µM | >100/>100/>100 μM | 3.50 µM | 1.96 µM | 6.27 µM | 2.84 µM | > 100 µM | 3.02 µM | 1.54 µM | 5.93 µM | GI50 (MDA-MB-468; Homo sapiens, MDA-MB-468, 48 h): 1.39 µM; CC50 (MDA-MB-468; Homo sapiens, MDA-MB-468, 48 h, read-out: LC50): 7.71 µM; TGI (MDA-MB-468; MDA-MB-468 (Breast Cancer), 48 h, SRB): 3.28 µM |
